Activity calls are given as the source filed them.
Key:
[1] = molecular target: Alkaline phosphatase, placental type (Homo sapiens, UniProt P05187); test: PLAP enzyme inhibitors, confirmation, biochemical, luminescence (AID 1512); assay type: functional
[2] = molecular target: T1, Alkaline phosphatase, tissue-nonspecific isozyme (Homo sapiens, UniProt P05186); test: human TNAP enzyme inhibitors, SAR follow-up, biochemical, luminescent, dose response (AID 1056)
T1 sequence (P05186 whole entry): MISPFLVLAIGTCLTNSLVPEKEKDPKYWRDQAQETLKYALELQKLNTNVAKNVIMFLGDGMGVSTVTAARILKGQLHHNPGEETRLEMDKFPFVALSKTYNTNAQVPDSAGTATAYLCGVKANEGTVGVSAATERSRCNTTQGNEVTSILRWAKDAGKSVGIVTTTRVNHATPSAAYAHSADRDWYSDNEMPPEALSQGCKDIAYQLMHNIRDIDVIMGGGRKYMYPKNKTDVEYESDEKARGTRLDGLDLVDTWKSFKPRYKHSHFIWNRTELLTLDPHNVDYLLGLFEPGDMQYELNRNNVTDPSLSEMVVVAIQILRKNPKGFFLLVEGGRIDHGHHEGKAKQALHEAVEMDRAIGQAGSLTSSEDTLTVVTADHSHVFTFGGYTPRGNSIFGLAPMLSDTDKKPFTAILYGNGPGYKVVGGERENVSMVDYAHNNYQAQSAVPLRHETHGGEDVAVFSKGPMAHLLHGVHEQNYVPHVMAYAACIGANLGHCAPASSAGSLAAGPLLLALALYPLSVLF

[3] = molecular target: T2, Histone-lysine N-methyltransferase NSD2 (Homo sapiens, UniProt O96028); assay type: biochemical
T2 sequence (O96028 whole entry): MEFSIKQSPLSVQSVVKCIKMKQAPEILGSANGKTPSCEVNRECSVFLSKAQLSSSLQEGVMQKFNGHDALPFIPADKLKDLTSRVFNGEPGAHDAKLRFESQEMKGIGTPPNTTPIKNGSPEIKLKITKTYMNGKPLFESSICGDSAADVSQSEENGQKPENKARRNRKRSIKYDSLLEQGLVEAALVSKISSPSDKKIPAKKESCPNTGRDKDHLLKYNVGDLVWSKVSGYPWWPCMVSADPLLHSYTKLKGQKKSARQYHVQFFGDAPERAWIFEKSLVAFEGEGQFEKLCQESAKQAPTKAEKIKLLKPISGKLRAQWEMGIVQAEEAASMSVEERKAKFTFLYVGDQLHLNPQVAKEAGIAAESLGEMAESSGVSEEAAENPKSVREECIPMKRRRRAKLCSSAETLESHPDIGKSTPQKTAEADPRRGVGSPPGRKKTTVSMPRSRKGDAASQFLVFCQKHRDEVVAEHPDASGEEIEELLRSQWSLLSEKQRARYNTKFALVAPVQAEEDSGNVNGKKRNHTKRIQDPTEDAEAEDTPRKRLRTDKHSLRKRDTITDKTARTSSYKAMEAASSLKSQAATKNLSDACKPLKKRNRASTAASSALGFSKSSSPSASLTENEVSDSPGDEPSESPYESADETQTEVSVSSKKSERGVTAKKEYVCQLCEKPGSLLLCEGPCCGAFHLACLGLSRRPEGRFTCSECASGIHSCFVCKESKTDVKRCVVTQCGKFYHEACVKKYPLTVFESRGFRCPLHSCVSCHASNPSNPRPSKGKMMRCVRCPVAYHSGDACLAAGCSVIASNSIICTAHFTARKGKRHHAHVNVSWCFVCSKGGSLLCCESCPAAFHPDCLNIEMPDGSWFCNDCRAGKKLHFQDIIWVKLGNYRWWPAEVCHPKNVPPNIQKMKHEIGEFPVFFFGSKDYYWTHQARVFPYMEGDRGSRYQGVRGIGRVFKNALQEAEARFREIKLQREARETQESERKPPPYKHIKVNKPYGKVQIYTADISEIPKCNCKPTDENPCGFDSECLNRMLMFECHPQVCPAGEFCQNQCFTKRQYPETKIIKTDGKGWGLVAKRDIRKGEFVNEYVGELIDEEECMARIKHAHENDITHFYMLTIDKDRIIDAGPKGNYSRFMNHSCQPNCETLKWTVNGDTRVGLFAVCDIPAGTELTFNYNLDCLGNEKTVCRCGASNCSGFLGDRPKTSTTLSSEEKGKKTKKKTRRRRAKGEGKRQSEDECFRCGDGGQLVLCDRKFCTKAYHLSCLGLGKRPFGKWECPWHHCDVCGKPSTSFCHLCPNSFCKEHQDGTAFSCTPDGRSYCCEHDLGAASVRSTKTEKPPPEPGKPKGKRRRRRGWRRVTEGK

HeLa = test: HeLa cell cytotoxicity, dose response, cytotoxicity control for MITF activator project, CellTiter-Glo luminescence, cherry-pick samples (AID 540259); assay type: functional, cell-based; details: Homo sapiens
[4] = molecular target: T3, Rac GTPase-activating protein 1 (Homo sapiens, UniProt Q9H0H5); test: MgcRacGAP GTPase-activating activity inhibitors, confirmation, biochemical, ADP Hunter fluorescence, primary and confirmatory (AID 624330); assay type: functional
T3 sequence (Q9H0H5 whole entry): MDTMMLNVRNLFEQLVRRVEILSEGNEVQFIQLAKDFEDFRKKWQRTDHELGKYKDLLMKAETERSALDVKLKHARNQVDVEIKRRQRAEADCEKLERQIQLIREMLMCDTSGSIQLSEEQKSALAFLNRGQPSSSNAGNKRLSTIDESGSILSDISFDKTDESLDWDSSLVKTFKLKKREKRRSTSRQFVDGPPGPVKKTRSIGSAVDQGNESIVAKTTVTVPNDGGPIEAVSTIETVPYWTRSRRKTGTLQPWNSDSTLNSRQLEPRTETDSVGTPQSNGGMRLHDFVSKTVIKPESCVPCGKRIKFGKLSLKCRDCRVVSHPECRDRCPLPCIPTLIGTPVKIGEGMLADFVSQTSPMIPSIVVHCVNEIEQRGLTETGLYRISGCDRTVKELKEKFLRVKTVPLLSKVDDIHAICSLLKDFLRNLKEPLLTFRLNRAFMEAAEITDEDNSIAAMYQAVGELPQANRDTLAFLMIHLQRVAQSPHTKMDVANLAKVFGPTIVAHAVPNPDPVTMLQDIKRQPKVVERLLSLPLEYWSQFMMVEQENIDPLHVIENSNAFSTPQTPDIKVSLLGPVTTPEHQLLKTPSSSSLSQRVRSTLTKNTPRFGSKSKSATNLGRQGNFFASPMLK

SUMO-activating enzyme [5] = molecular target: T4, SUMO-activating enzyme (Homo sapiens, UniProt Q9UBT2); test: SUMOylation inhibitor hit validation, confirmation, SUMOylation inhibitor project, biochemical, AlphaScreen (AID 2018); assay type: functional
SUMO-activating enzyme [6] = molecular target: T4, SUMO-activating enzyme; test: inhibitors of in vitro SUMOylation cascade, primary screen, biochemical, HTRF, uHTS (AID 2006); assay type: protein-complex assay
[7] = molecular target: Induced myeloid leukemia cell differentiation protein Mcl-1 (Homo sapiens, UniProt Q07820); assay type: functional
[8] = Vero E6 cell cytotoxicity, dose response, cytotoxicity control for non-replicating M. tuberculosis project, secondary assay (AID 492998); assay type: functional, VeroE6; details: Vero C1008
cells [9] = assay type: functional
[10] = HEp-2 cell cytotoxicity, dose response, cytotoxicity control for RSV inhibitor project, HTS (AID 2410); assay type: functional; details: human respiratory syncytial virus
Vero [11] = test: cells; assay type: functional, cell-based; details: Chlorocebus sabaeus
cells [12] = test: cells
Cytochrome P450 2C19 = Cytochrome P450 2C19 (Homo sapiens, UniProt P33261); test: Cytochrome panel assay with activity outcomes. Panel member name: p450-cyp2c19 Compounds with AC50 equal or less than 10 uM are considered active; assay type: functional
Cytochrome P450 2D6 = Cytochrome P450 2D6 (Homo sapiens, UniProt P10635);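 also: CYP2D6 member of a cytochrome P450 panel assay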
Cytochrome P450 1A2 = molecular target: T5, Cytochrome P450 1A2 (Homo sapiens, UniProt P05177);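 also: PubChem cytochrome P450 panel assay, CYP1A2 panel member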
T5 sequence (P05177 whole entry): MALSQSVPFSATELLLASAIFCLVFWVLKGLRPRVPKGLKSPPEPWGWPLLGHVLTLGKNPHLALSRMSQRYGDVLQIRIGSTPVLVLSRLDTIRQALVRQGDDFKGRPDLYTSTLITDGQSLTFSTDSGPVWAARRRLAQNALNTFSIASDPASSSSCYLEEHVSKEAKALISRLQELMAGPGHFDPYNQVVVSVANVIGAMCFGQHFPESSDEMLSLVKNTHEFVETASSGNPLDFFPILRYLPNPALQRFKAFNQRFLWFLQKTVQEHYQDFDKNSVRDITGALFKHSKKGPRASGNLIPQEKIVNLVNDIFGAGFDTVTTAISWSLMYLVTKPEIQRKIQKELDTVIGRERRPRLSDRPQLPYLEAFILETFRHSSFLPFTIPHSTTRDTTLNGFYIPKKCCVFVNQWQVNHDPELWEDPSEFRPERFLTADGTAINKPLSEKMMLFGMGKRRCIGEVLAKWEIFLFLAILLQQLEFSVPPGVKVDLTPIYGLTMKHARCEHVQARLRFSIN

Cytochrome P450 2C9 = Cytochrome P450 2C9 (Homo sapiens, UniProt P11712)
[13] = molecular target: T6, Microphthalmia-associated transcription factor (Homo sapiens, UniProt O75030); test: TRPM1 promoter luciferase signal decrease, dose response, MITF inhibitor project, cell-based, SK-MEL-5, cherry-picked, set 3 (AID 493073); assay type: functional
T6 sequence (O75030 whole entry): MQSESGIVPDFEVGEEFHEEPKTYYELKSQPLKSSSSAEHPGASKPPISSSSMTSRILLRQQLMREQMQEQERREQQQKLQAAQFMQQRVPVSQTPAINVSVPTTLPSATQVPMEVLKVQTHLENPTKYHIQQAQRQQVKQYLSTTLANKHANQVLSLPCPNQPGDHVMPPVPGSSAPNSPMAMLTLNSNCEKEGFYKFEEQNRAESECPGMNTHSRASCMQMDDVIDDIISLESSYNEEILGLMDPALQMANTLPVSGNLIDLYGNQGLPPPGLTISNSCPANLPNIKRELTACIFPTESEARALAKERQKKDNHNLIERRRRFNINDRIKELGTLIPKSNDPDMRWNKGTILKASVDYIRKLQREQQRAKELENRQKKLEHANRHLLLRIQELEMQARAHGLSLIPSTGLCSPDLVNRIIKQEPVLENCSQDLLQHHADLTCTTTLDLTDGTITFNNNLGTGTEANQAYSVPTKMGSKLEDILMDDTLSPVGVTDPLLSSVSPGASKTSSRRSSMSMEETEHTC

Vero [14] = test: cells; assay type: functional; details: Chlorocebus sabaeus
[15] = test system: Streptococcus sp. 'group A'; test: growth inhibition of control SK(-) GAS strain, dose response, counter-screen for streptokinase expression inhibitor project, luminescence, kanamycin, BacTiterGlo, confirmation (AID 1900); assay type: functional, organism-based
Streptokinase A = molecular target: T7, Streptokinase A (Streptococcus pyogenes serotype M1, UniProt P10520); test: S. pyogenes streptokinase expression inhibitors, potency, dose response, plasminogen activation absorbance, OD405 (AID 1914); assay type: functional, Streptococcus pyogenes M1 GAS;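 also: secreted streptokinase activity via plasminogen activation per viability signal from cell pellet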
T7 sequence (P10520 whole entry): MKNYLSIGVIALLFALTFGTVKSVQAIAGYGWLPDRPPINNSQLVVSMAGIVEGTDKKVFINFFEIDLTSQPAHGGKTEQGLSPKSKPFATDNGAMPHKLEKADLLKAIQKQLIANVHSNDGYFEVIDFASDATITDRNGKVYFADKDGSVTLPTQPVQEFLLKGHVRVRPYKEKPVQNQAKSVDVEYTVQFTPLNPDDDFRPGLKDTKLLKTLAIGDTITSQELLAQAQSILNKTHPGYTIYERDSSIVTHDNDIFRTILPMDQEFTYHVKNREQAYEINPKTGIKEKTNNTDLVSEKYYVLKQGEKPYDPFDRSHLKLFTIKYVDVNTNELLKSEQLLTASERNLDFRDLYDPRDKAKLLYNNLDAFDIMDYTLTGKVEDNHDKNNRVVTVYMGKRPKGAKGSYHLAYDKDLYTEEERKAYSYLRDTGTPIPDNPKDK

Streptococcus = test: Group A Streptococcus viability loss, dose response, counter-screen for streptokinase expression inhibitor project, luminescence, BacTiterGlo (AID 1915); assay type: functional, organism-based;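 also: potency for reduction of bacterial viability or growth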
[16] = THP-1 cell cytotoxicity, dose response, cytotoxicity control for non-replicating M. tuberculosis project (AID 489025); assay type: functional

T4 sequence (Q9UBE0 whole entry): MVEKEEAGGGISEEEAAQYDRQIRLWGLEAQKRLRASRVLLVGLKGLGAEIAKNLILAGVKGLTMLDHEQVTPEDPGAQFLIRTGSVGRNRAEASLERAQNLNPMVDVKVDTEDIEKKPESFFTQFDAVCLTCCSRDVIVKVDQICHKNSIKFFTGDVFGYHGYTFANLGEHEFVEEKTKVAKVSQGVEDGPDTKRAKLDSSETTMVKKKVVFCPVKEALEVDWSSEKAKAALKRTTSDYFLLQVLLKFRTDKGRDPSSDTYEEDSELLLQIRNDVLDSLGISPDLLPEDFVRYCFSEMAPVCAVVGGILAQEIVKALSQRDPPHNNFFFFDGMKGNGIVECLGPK
T4 sequence (Q9UBT2 whole entry): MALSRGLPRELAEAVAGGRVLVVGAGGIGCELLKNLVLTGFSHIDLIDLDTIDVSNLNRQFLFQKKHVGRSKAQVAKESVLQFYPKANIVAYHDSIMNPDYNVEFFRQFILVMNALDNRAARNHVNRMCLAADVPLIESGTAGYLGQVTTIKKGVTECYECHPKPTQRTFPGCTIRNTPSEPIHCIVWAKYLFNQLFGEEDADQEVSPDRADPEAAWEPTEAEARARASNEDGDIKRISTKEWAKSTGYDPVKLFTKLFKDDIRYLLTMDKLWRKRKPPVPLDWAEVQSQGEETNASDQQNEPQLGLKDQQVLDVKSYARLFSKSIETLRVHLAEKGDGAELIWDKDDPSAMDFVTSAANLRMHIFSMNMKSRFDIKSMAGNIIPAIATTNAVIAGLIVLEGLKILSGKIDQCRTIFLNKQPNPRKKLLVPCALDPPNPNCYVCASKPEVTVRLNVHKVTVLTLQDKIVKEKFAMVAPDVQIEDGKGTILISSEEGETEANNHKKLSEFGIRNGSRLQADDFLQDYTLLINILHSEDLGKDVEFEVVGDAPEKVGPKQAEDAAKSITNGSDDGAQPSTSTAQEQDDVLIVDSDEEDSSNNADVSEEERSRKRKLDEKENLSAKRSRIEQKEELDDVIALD
Sequence of Cytochrome P450 2D6 (P10635 whole entry): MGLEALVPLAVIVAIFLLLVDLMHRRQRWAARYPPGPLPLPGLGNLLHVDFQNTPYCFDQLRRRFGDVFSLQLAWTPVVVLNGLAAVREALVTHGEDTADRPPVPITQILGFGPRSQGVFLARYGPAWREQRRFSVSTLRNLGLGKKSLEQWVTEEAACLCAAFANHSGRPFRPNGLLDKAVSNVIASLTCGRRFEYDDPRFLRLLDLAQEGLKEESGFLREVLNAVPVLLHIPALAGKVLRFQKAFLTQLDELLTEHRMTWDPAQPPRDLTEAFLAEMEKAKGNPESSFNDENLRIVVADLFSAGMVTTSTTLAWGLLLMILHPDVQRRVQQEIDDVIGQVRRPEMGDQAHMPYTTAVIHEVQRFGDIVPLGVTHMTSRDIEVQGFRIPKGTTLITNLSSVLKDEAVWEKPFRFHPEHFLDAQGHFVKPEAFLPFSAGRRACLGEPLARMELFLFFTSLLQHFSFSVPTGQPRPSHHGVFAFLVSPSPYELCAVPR
Sequence of Cytochrome P450 2C19 (P33261 whole entry): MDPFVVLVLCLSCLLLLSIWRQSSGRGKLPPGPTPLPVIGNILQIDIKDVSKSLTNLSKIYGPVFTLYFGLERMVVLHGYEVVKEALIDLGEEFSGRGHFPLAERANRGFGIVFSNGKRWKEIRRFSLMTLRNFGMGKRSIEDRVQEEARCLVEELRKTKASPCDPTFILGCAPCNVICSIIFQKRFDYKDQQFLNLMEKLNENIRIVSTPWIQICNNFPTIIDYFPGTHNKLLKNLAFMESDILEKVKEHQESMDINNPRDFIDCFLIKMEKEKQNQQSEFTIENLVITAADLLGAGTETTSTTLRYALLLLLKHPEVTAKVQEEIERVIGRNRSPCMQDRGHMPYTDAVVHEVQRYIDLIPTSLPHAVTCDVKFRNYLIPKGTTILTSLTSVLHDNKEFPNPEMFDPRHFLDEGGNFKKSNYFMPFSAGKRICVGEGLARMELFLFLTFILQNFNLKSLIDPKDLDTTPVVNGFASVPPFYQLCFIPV
Sequence of Cytochrome P450 2C9 (P11712 whole entry): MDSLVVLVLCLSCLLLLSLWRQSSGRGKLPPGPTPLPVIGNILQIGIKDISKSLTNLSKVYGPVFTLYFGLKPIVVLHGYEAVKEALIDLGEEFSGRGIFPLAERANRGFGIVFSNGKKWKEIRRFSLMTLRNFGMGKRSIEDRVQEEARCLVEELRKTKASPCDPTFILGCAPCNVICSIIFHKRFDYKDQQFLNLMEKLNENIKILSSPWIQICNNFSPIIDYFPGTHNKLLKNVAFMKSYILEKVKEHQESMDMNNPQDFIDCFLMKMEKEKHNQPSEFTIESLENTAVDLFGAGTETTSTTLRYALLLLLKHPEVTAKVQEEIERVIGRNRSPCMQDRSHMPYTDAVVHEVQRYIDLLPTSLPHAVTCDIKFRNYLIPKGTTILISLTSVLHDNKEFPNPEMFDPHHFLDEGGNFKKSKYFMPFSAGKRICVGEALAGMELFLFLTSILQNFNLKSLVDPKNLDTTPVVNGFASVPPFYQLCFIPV
Sequence of Induced myeloid leukemia cell differentiation protein Mcl-1 (Q07820 whole entry): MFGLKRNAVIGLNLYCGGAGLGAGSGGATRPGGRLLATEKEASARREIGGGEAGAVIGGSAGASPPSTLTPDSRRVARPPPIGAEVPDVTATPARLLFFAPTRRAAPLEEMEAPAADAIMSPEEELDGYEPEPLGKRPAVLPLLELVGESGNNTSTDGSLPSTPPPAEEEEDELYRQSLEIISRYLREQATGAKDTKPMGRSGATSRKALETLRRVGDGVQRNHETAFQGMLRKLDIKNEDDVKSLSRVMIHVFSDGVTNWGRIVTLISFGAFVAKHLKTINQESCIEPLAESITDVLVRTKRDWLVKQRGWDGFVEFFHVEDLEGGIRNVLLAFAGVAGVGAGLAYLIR
Sequence of Alkaline phosphatase, placental type (P05187 whole entry): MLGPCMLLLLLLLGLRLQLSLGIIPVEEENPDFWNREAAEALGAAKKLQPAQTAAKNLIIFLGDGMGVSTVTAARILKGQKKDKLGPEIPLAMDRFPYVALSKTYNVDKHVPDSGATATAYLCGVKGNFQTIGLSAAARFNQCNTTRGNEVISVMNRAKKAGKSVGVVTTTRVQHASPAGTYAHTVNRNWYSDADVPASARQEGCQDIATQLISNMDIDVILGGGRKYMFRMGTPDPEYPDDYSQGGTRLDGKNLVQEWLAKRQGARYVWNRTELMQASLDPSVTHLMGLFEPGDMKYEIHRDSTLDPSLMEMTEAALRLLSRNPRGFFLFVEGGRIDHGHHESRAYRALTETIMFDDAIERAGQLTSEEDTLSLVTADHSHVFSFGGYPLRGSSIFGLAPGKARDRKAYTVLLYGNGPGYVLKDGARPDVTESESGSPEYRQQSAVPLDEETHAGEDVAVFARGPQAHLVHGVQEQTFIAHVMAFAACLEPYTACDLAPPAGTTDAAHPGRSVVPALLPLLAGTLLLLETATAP

## NC(=O)c1ccc(-n2nnnc2SCC(=O)c2ccc(O)c(O)c2)cc1
[1]
  IC50: 1.76 µM (active)
[2]
  IC50: 3.48 µM (active)
[3]
  AC50: > 20 µM (inactive)

## Oc1ccc(N=Nc2ccccc2)cc1
HeLa
  AC50: 98.1 µM (active)
[4]
  IC50: 70.9 µM (active)

## COc1ccc(C(=O)Nc2ccc(-c3nnn(CC(=O)N4CCN(C(=O)c5ccco5)CC4)n3)cc2)cc1
SUMO-activating enzyme [5]
  IC50: 13 µM (active)
SUMO-activating enzyme [6]
  IC50: 30 µM (active)

## COc1cc(NCCC(=O)c2cccs2)c(OC)cc1Cl
[7]
  IC50: 4.38 µM (not active)
[8]
  CC50: > 20 µM (active)
Cells [9]
  IC50: 8.46 µM (active)
[4]
  IC50: 58.1 µM (active)

## CCNc1nc(N)nc(Oc2ccc(C(=O)OC)cc2)n1
HeLa
  AC50: 245 µM (active)

## C/C(N)=C(/C#N)C(=O)COC(=O)c1cc(C)n(-c2ccc(F)cc2)c1C
[10]
  CC50: 18.8 µM (active)
Vero [11]
  IC50: 8.93 µM (active)
Cells [12]
  IC50: 29.9 µM (active)

## C[C@@H](c1ccccc1)N1C(=O)[C@H]2[C@@H]3[C@H](O)C=CC(=O)[C@H]3CC[C@H]2C1=O
Cytochrome P450 2C19
  AC50: inconclusive
Cytochrome P450 2D6
  AC50: inconclusive

## COc1ccc(/C=N/C(CO)C(O)c2ccc([N+](=O)[O-])cc2)cc1 (centres undefined)
Cytochrome P450 1A2
  AC50: 20 µM (inconclusive)
Cytochrome P450 2C9
  AC50: 2.51 µM (inconclusive)
Cytochrome P450 2D6
  AC50: inconclusive

## Cc1cc(C)nc(Nc2n[nH]c(-c3cccc4ccccc34)n2)n1
Cytochrome P450 2C19; read-out: AC50
  AC50: 17.8 µM (inconclusive)
Cytochrome P450 2D6
  AC50: inconclusive

## O=C(O)c1nn(-c2ccccc2)nc1-c1nn(-c2ccccc2)nc1C(=O)O
Cytochrome P450 2D6
  AC50: inconclusive

## CCCN1CCC(NCc2cn(C)nc2-c2ccc(Oc3ccccc3)cc2)CC1
[13]
  AC50: 8.35 µM (active)
Vero [11]
  IC50: 23.1 µM (active)
Vero [14]
  CC50: > 25 µM (active)

## CCN(CC)c1ccc(NC(=O)CSc2nc(C3CC3)nc3ccccc23)cc1C
SUMO-activating enzyme [5]
  IC50: 7.43 µM (active)
SUMO-activating enzyme [6]
  IC50: 27 µM (active)

## CCCCCC/C(=N/O)c1ccccn1
[15]
  EC50: 7.92 µM (active)
Streptokinase A
  EC50: > 150 µM (not active)
Streptococcus
  EC50: 40 µM (active)
[16]
  CC50: 20.2 µM (active)
[8]
  CC50: 15.2 µM (active)
Cells [9]
  IC50: 6.74 µM (active)
